The target of test [1] is T1, IGF-1R (Homo sapiens, UniProt P08069).
T1 construct: purchased Upstate Co. 14-465
Kind of test: IGF-1R inhibitory activity (kinase reaction, time-resolved fluoroimmunoassay). In kind it is biochemical. The settings on record: test compound 10 μmol/L. Put shortly:
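Compounds were tested at a single 10 μmol/L concentration. Each was incubated with recombinant IGF-1R (200 μg/L), 10 mmol/L ATP, MgCl2/MnCl2 and Na3VO4 (pH 7.5) on immobilized poly(Glu-Tyr) peptide for 30 min at 24° C. Eu-anti-phosphotyrosine time-resolved fluorescence (340/615 nm) gave relative activity against no-compound and no-enzyme wells, reported as % inhibition.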

The subject of test [2] is KMS-11. Kind of test: Cytostatic activity on human multiple myeloma cell line KMS-11 (WST-1). Format: cell-based. To be noted: for inhibition at 1 µM / inhibition at 10 µM: Homo sapiens; for inhibition at 1 µM: read-out: cytostatic rate (%) KMS-11 (1 μmol/L); for inhibition at 10 µM: read-out: cytostatic rate (%) KMS-11 (10 μmol/L). The method in brief: (§1)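 Cytostatic rate is 100 minus % growth relative to DMSO-only wells (100%) and blank wells (0%), read by WST-1 absorbance at 450/690 nm after 2 h. Compound at 1 or 10 μmol/L final was applied for 72 h at 37 °C to cells seeded 24 h earlier.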
(In general: Tetrazolium dyes change colour on reduction, which living cells bring about.)

For test [3], the system named is NCI-H929. The test can be described thus: Cytostatic activity on human multiple myeloma cell line NCI-H929 (WST-1). In kind it is cell-based. To be noted: for inhibition at 1 µM / inhibition at 10 µM: Homo sapiens; for inhibition at 1 µM: read-out: cytostatic rate (%) H929 (1 μmol/L); for inhibition at 10 µM: read-out: cytostatic rate (%) H929 (10 μmol/L). The method in brief: as §1

Where [4] appears, read: IGF-1R active recombinant enzyme.
Where [5] appears, read: KMS-11, 72 h, 1 μmol/L, 72 hours.
The mark [6] stands for this setting: NCI-H929, 72 h, 1 μmol/L, 72 hours.
Setting [7] is: KMS-11, 72 h, 10 μmol/L, 72 hours.
[8] abbreviates: NCI-H929, 72 h, 10 μmol/L, 72 hours.
The mark [9] stands for this setting: KMS-11, 72 h, KMS-11 cells, test compound 1 μmol/L, WST-1.
[10] abbreviates: NCI-H929, 72 h, NCI-H929 cells, test compound 1 μmol/L, WST-1.

SMILES strings stand for the structures. Structures can show the parent of a compound that is named as a salt. Where two headings read alike, the source gives them in different places.

T1 sequence (P08069 959-1367 limits assumed): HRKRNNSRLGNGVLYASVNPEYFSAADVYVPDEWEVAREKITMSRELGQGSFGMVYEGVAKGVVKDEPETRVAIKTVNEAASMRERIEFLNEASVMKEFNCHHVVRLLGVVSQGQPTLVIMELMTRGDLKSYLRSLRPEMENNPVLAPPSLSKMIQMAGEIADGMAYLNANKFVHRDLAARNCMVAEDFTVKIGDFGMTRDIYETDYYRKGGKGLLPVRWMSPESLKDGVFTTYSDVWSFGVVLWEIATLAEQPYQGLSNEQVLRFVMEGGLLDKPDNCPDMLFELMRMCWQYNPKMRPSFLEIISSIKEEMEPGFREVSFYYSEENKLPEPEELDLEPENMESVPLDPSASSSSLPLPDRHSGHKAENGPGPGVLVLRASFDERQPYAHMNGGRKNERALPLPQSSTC

As to `COCCN(C)CCCOc1cc(NC(=O)c2sccc2C)c(/C=C/c2n[nH]c3ccccc23)cc1OC` [Compound 298, (E)-N-{2-[2-(1H-indazol-3-yl)vinyl]-4-methoxy-5-{3-[N-(2-methoxyethyl)methylamino]propyloxy}phenyl}-3-methylthiophene-2-carboxamide], in test [1] (setting [4]), the inhibition at 10 µM was determined as 94.2%. Further, the results for the inhibition at 1 µM in test [2] (setting [5]) and in test [3] (setting [6]) were 110% and 117%, respectively.
With `O=C(Nc1ccccc1/C=C/c1n[nH]c2ccccc12)c1ccccn1` [Compound 12, (E)-N-{2-[2-(1H-indazol-3-yl)vinyl]phenyl}pyridine-2-carboxamide], the inhibition at 10 µM in test [1] (setting [4]) stood at 96.1%; in test [2] (setting [7]), 120%; in test [3] (setting [8]) it was 118%.
The matching figures for `O=S(=O)(Nc1ccccc1/C=C/c1n[nH]c2ccccc12)c1ccccc1` [Compound 16, (E)-N-{2-[2-(1H-indazol-3-yl)vinyl]phenyl}benzenesulfonamide]: 59.2%, 85.2% and 64.7%.
`O=C(Nc1ccccc1/C=C/c1n[nH]c2ccccc12)c1cc2sccc2s1` [Compound 57, (E)-N-{2-[2-(1H-indazol-3-yl)vinyl]phenyl}thieno[3,2-b]thiophene-2-carboxamide]: the inhibition at 10 µM in test [1] (setting [4]) worked out at 98.3%; in test [2] (setting [7]), 141%; in test [3] (setting [8]), 117%.
The matching figures for `C(=C\c1n[nH]c2ccccc12)/c1ccccc1OCc1ccccc1` [Compound 13, (E)-3-[2-(2-benzyloxyphenyl)vinyl]-1H-indazole]: 96.9%, 105% and 116%.
For `O=C(Nc1ccccc1/C=C/c1n[nH]c2ccccc12)c1sccc1Cl` [Compound 54, (E)-3-chloro-N-{2-[2-(1H-indazol-3-yl)vinyl]phenyl}thiophene-2-carboxamide] the same measures were 96.7%, 126% and 118%.
`O=C1c2ccccc2CN1c1ccccc1/C=C/c1n[nH]c2ccccc12` [Compound 213, (E)-2-{2-[2-(1H-indazol-3-yl)vinyl]phenyl}-2,3-dihydroisoindole-1-one]: the inhibition at 10 µM is 99% in test [1] (setting [4]), 121% in test [2] (setting [7]) and 127% in test [3] (setting [8]).
The matching figures for `Cc1cc(N)sc1C(=O)Nc1ccccc1/C=C/c1n[nH]c2ccccc12` [Compound 67, (E)-5-amino-N-{2-[2-(1H-indazol-3-yl)vinyl]phenyl}-3-methylthiophene-2-carboxamide]: 95.6%, 100% and 119%.
With `Nc1ccc(C(=O)Nc2ccccc2/C=C/c2n[nH]c3ccccc23)c(Cl)c1` [Compound 84, (E)-4-amino-2-chloro-N-{2-[2-(1H-indazol-3-yl)vinyl]phenyl}benzamide], the inhibition at 10 µM in test [1] came to 100%; in test [2] (setting [7]) it was 107%; in test [3] (setting [8]), 113%.
On to `Cc1ccc(C(=O)Nc2ccccc2/C=C/c2n[nH]c3ccccc23)s1` [Compound 40, (E)-N-{2-[2-(1H-indazol-3-yl)vinyl]phenyl}-5-methylthiophene-2-carboxamide], for which the values for the inhibition at 10 µM in test [1] (setting [4]), in test [2] (setting [7]) and in test [3] (setting [8]) were 98.8%, 108% and 125%, respectively.
In the case of `COc1cc(/C=C/c2n[nH]c3ccccc23)c(NC(=O)c2sccc2C)cc1OCCCN1CCOCC1` [Compound 292, (E)-N-{2-[2-(1H-indazol-3-yl)vinyl]-4-methoxy-5-[3-(morpholin-4-yl)propyloxy]phenyl}-3-methylthiophene-2-carboxamide], the inhibition at 10 µM in test [1] (setting [4]) was 97.2%. The inhibition at 1 µM in test [2] (setting [5]) is 122%; in test [3] (setting [6]), 113%.
For `CCC(O)(CC)C(=O)Nc1ccccc1/C=C/c1n[nH]c2ccccc12` [Compound 45, (E)-2-ethyl-2-hydroxy-N-{2-[2-(1H-indazol-3-yl)vinyl]phenyl}butylamide], the “inhibitory activity (%) at 10 μmol/L” value in test [1] (setting [4]) is on record as 97.4%. The “cytostatic rate (%) KMS-11 (10 μmol/L)” value in test [2] (10 μmol/L, 72 hours) worked out at 98.3%. The “cytostatic rate (%) H929 (10 μmol/L)” value in test [3] (10 μmol/L, 72 hours) is reported as 115.0%.
Consider `Cc1ccsc1C(=O)Nc1cc(C(=O)N2CCC3(CC2)OCCO3)ccc1/C=C/c1n[nH]c2ccccc12` [Compound 119, (E)-N-{5-(1,4-dioxa-8-azaspiro[4,5]decane-8-carbonyl)-2-[2-(1H-indazol-3-yl)vinyl]phenyl}-3-methylthiophene-2-carboxamide], for which the inhibition at 10 µM worked out at 102% in test [1]; 116% in test [2] (KMS-11, 10 μmol/L, 72 hours); 117% in test [3] (NCI-H929, 10 μmol/L, 72 hours).
As for `O=C(Nc1ccccc1/C=C/c1n[nH]c2ccccc12)c1ccncc1` [Compound 10, (E)-N-{2-[2-(1H-indazol-3-yl)vinyl]phenyl}isonicotinamide], the figures for the inhibition at 10 µM in test [1] (setting [4]), in test [2] (setting [7]) and in test [3] (setting [8]) were 99.1%, 102% and 113%, respectively.
Consider `O=C(Nc1ccccc1/C=C/c1n[nH]c2ccccc12)c1cccs1` [Compound 14, (E)-N-{2-[2-(1H-indazol-3-yl)vinyl]phenyl}thiophene-2-carboxamide], for which the values for the inhibition at 10 µM in test [1] (setting [4]), in test [2] (setting [7]) and in test [3] (setting [8]) were 96.5%, 110% and 114%, respectively.
As to `COc1c(OCCCN2CCC[C@H]2CO)ccc(/C=C/c2n[nH]c3ccccc23)c1NC(=O)c1sccc1C` [Compound 340, (E)-(s)-N-{3-[3-(2-hydroxymethylpyrrolidin-1-yl)propoxy]-6-[2-(1H-indazol-3-yl)vinyl]-2-methoxyphenyl}-3-methylthiophene-2-carboxamide], the inhibition at 10 µM in test [1] (setting [4]) turned out to be 103%. Also, the inhibition at 1 µM in test [2] (setting [9]) amounted to 118%; in test [3] (setting [10]), 121%.
As for `N#Cc1ccc(C(=O)Nc2ccccc2/C=C/c2n[nH]c3ccccc23)cc1` [Compound 83, (E)-4-cyano-N-{2-[2-(1H-indazol-3-yl)vinyl]phenyl}benzamide], the inhibition at 10 µM in test [1] was determined as 96.3%; in test [2] (setting [7]), 107%; in test [3] (setting [8]), 114%.
`CCN(CC)CCN(CCO)C(=O)c1ccc(/C=C/c2n[nH]c3ccccc23)c(NC(=O)c2sccc2C)c1` [Compound 255, (E)-N-(5-{N-[2-(diethylamino)ethyl]-N-(2-hydroxyethyl)carbamoyl}-2-[2-(1H-indazol-3-yl)vinyl]phenyl)-3-methylthiophene-2-carboxamide]: the inhibition at 10 µM in test [1] (setting [4]) worked out at 100%. Also, the values for the inhibition at 1 µM in test [2] (setting [5]) and in test [3] (setting [6]) were 97.6% and 121%, respectively.
Take `Cc1ccsc1C(=O)Nc1ccc(N2CCC(S(C)(=O)=O)CC2)cc1/C=C/c1n[nH]c2ccccc12` [Compound 227, (E)-N-{2-[2-(1H-indazol-3-yl)vinyl]-4-(4-methanesulfonylpiperidin-1-yl)phenyl}-3-methylthiophene-2-carboxamide hydrochloride]: the inhibition at 10 µM in test [1] (setting [4]) is 98.9%. The inhibition at 1 µM in test [2] (setting [5]) amounted to 52.9%; in test [3] (setting [6]) it was 113%.
With `Cc1nnsc1C(=O)Nc1ccccc1/C=C/c1n[nH]c2ccccc12` [Compound 71, (E)-N-{2-[2-(1H-indazol-3-yl)vinyl]phenyl}-4-methyl-[1,2,3]thiadiazole-5-carboxamide], the inhibition at 10 µM in test [1] (setting [4]) came out at 99.4%; in test [2] (setting [7]), 114%; in test [3] (setting [8]), 115%.
For `Cc1cc(C(=O)Nc2ccccc2/C=C/c2n[nH]c3ccccc23)c(C(F)(F)F)o1` [Compound 59, (E)-N-{2-[2-(1H-indazol-3-yl)vinyl]phenyl}-5-methyl-2-trifluoromethylfuran-3-carboxamide] the same measures were 86.3%, 106% and 110%.
For the molecule `Cc1ccsc1C(=O)Nc1cc(CN2CCC(CCO)CC2)ccc1/C=C/c1n[nH]c2ccccc12` [Compound 311, (E)-N-{5-[4-(2-hydroxyethyl)piperidin-1-ylmethyl]-2-[2-(1H-indazol-3-yl)vinyl]phenyl}-3-methylthiophene-2-carboxamide], the inhibition at 10 µM in test [1] (setting [4]) is 104%. In addition, the inhibition at 1 µM in test [2] (setting [9]) came to 111%; in test [3] (setting [10]), 117%.
Regarding `O=C(Cc1cccs1)Nc1ccccc1/C=C/c1n[nH]c2ccccc12` [Compound 25, (E)-N-{2-[2-(1H-indazol-3-yl)vinyl]phenyl}-2-(thiophen-2-yl)acetamide], the inhibition at 10 µM in test [1] (setting [4]) was 86%; in test [2] (setting [7]), 106%; in test [3] (setting [8]) it was 116%.
The matching figures for `Nc1cccc(C(=O)Nc2ccccc2/C=C/c2n[nH]c3ccccc23)c1` [Compound 69, (E)-3-amino-N-{2-[2-(1H-indazol-3-yl)vinyl]phenyl}benzamide]: 101%, 114% and 116%.

The values above are taken from patent US7605272B2, “IGF-1R inhibitor” (Kyowa Hakko Kirin Co., Ltd., priority 2005, dated 2009).
